Laboratory results: ChEMBL document CHEMBL6096636 (Bioorg Med Chem, 2024)
Activity calls are given as the source filed them. The calls are words filed in the database; no cut-off is given here.

How the values were obtained:
[1] = test system: Plasmodium falciparum; test: microbe, parasite or virus in culture; details: Dd2, 72 h
Description: Antimalarial activity against erythrocytic stage of chloroquine-resistant Plasmodium falciparum Dd2 assessed as inhibition of growth incubated for 72 hrs by SYBR green I based assay

[2] = molecular target: Histone deacetylase 3 (Homo sapiens, UniProt O15379); test: Inhibition of recombinant human HDAC3 using Ac-peptide as substrate preincubated for 15 mins followed by substrate addition and measured after 60 mins
Chain of Histone deacetylase 3 (O15379 whole entry): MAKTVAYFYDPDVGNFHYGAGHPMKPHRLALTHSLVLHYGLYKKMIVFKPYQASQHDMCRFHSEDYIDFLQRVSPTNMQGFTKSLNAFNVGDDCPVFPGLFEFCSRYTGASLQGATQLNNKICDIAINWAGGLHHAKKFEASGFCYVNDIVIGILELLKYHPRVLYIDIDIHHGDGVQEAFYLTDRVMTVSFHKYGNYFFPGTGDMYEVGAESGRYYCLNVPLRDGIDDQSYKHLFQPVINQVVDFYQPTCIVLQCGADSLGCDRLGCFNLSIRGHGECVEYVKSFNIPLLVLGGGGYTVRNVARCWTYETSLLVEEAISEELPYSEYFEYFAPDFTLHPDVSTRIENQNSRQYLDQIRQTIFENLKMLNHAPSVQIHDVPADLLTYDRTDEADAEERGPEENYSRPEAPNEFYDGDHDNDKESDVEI

[3] = molecular target: T1, NAD-dependent protein deacetylase sirtuin-2 (Homo sapiens, UniProt Q8IXJ6); test: Inhibition of recombinant human SIRT2 using Ac-peptide as substrate preincubated for 15 mins followed by substrate addition for 240 mins and measured after 120 mins of trypsin addition
T1 sequence (Q8IXJ6 whole entry): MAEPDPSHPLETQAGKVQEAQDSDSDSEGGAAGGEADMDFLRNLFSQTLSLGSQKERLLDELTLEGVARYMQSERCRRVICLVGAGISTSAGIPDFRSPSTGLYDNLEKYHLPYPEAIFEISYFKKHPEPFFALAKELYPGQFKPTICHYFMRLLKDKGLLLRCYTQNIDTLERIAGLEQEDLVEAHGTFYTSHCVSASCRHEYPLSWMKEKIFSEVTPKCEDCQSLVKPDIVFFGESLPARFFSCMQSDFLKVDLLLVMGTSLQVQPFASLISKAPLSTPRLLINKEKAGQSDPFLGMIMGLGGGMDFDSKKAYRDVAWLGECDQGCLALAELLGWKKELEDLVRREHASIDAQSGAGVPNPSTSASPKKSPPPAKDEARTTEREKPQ

[4] = test system: Plasmodium falciparum; test: microbe, parasite or virus in culture; details: 72 h
Description: Antimalarial activity against chloroquine resistant Plasmodium falciparum clinical isolate GB4 assessed as inhibition of growth incubated for 72 hrs by SYBR green I based assay

[5] = molecular target: Histone deacetylase 2 (Homo sapiens, UniProt Q92769); test: Inhibition of recombinant human HDAC2 using Ac-peptide as substrate preincubated for 15 mins followed by substrate addition and measured after 60 mins
Chain of Histone deacetylase 2 (Q92769 whole entry): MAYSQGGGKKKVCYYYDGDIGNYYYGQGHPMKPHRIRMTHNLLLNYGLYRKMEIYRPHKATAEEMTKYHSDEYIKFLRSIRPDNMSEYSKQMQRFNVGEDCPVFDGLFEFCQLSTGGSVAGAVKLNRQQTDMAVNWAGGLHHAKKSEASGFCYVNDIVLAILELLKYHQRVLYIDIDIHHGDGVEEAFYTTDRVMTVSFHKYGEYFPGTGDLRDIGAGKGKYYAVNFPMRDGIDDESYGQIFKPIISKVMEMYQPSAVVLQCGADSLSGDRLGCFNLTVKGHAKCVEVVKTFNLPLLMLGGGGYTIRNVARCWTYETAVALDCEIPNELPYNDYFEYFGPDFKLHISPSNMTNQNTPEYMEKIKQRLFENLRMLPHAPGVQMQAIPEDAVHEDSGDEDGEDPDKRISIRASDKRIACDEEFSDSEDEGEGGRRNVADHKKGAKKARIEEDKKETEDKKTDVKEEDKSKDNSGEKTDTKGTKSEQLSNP

[6] = Selectivity index, ratio of IC50 for HEK293T cells to IC50 for erythrocytic stage of Plasmodium falciparum 3D7; assay type: toxicity, cell-based; details: human, read-out: Ratio IC50
[7] = molecular target: T2, Histone deacetylase 8 (Homo sapiens, UniProt Q9BY41); test: Inhibition of recombinant human HDAC8 using Ac-peptide as substrate preincubated for 15 mins followed by substrate addition for 240 mins and measured after 120 mins of trypsin addition
T2 sequence (Q9BY41 whole entry): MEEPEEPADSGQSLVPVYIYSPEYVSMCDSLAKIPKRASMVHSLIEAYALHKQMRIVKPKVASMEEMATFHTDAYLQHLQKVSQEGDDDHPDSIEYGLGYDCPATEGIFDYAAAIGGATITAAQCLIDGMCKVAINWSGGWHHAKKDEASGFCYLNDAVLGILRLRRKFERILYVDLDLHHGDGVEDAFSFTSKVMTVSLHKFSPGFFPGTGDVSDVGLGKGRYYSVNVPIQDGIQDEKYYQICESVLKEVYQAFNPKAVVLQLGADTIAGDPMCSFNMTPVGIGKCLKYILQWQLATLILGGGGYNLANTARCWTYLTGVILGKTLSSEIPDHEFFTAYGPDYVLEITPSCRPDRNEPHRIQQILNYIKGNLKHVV

[8] = test system: Plasmodium falciparum; test: microbe, parasite or virus in culture; details: 3D7, 72 h
Description: Antimalarial activity against erythrocytic stage of Plasmodium falciparum 3D7 assessed as inhibition of growth incubated for 72 hrs by SYBR green I based assay

[9] = test system: Plasmodium falciparum; test: Antimalarial activity against sulfadoxine-pyrimethamine and mefloquine resistant Plasmodium falciparum clinical isolate CP286 assessed as inhibition of growth incubated for 72 hrs by SYBR green I based assay; assay type: functional, organism-based
[10] = test system: Plasmodium falciparum; test: microbe, parasite or virus in culture; details: 72 h; remark: listed apart in the source
Description: Antimalarial activity against quinine and chloroquine resistant Plasmodium falciparum clinical isolate C2A assessed as inhibition of growth incubated for 72 hrs by SYBR green I based assay

[11] = Cytotoxicity against HEK293T cells assessed as inhibition of cell growth incubated for 72 hrs by CCK8 assay; assay type: toxicity, cell-based, HEK-293T; details: human
[12] = test system: Plasmodium falciparum; test: Inhibition of asynchronous ring stage Plasmodium falciparum 3D7 HDAC assessed as increase in histone H3 acetylation level at 20 times of IC50 concentration incubated for 2 hrs by Western blot analysis
[13] = Metabolic stability in mouse liver microsomes assessed as half-life measured upto 45 mins in presence of NADPH by LC-MS/MS analysis; assay type: ADME, Microsome
[14] = test system: Plasmodium yoelii; test: Antimalarial activity against erythrocytic stage of Plasmodium yoelli infected in female mouse model assessed as reduction in parasitemia at 30 mg/kg, ip pre-infected with parasite followed by twice daily compound administration from day 3 to 6 by microscopic analysis; assay type: functional, organism-based; details: time 4.0 day
[15] = Cytotoxicity against human HepG2 cells assessed as inhibition of cell growth incubated for 72 hrs by CCK8 assay; assay type: toxicity, cell-based
[16] = molecular target: T3, Protein deacetylase HDAC6 (Homo sapiens, UniProt Q9UBN7); test: Inhibition of recombinant human HDAC6 using Ac-peptide as substrate preincubated for 15 mins followed by substrate addition and measured after 60 mins
T3 sequence (Q9UBN7 whole entry): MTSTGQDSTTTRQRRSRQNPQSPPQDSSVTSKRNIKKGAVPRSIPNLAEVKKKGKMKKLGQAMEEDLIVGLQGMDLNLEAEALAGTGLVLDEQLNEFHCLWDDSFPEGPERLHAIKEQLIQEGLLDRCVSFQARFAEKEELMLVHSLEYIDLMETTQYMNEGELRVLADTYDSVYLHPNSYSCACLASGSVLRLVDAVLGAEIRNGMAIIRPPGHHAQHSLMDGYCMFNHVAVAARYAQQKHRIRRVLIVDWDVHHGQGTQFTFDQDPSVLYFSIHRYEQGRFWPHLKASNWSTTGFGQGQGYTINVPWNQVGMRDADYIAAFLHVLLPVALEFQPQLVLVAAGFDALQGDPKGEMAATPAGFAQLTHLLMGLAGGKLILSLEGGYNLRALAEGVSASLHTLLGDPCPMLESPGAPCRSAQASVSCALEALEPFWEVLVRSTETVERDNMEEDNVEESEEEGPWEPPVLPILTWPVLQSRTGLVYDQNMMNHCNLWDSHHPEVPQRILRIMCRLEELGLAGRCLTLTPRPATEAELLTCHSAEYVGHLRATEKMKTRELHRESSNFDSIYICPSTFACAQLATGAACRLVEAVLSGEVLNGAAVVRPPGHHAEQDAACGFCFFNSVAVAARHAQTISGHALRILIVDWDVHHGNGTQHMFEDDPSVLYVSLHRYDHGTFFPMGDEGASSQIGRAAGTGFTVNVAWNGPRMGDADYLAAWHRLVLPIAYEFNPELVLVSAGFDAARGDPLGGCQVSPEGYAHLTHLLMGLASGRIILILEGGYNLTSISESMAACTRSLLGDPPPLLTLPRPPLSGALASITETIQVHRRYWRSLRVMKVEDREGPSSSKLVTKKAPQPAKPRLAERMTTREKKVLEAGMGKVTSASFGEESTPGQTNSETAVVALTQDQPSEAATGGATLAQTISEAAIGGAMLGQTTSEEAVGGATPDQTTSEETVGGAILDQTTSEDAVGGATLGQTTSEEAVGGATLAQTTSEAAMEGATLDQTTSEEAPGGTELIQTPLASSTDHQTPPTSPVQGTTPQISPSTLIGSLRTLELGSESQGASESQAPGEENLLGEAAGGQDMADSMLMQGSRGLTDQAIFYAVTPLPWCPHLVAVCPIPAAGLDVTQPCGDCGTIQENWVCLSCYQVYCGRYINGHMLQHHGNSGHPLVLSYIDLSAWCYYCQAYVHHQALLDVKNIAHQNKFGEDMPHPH

[17] = Toxicity in female mouse model infected with erythrocytic stage of Plasmodium yoelli assessed as animal death at 30 mg/kg, ip pre-infected with parasite followed by twice daily compound administration from day 3 to 6; assay type: organism-based; details: in vivo, 96 h, time 4 day
[18] = molecular target: Histone deacetylase 1 (Homo sapiens, UniProt Q13547); test: Inhibition of recombinant human HDAC1 using Ac-peptide as substrate preincubated for 15 mins followed by substrate addition and measured after 60 mins
Chain of Histone deacetylase 1 (Q13547 whole entry): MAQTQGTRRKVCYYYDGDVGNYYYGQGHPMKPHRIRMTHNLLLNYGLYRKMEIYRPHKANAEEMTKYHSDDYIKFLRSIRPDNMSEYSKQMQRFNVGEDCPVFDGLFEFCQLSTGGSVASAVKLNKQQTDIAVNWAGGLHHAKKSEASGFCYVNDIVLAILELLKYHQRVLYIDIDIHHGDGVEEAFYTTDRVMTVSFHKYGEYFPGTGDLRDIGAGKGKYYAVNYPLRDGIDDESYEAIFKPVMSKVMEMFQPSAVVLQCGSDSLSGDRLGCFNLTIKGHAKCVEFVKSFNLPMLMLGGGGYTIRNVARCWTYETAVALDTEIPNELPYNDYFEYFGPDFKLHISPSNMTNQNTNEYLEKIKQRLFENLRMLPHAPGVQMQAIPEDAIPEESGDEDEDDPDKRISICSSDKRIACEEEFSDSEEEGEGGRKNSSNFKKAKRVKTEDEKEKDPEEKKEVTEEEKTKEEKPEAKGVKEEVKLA

[19] = Metabolic stability in mouse liver microsomes assessed as clearance measured upto 45 mins in presence of NADPH by LC-MS/MS analysis; assay type: ADME, Microsome; details: read-out: CLH
[20] = Resistance index, ratio of IC50 for sulfadoxine-pyrimethamine and mefloquine resistant Plasmodium falciparum clinical isolate CP286 to IC50 for erythrocytic stage of Plasmodium falciparum 3D7; assay type: functional
[21] = Resistance index, ratio of IC50 for quinine and chloroquine resistant Plasmodium falciparum clinical isolate C2A to IC50 for erythrocytic stage of Plasmodium falciparum 3D7; assay type: functional
[22] = Resistance index, ratio of IC50 for chloroquine resistant Plasmodium falciparum clinical isolate GB4 to IC50 for erythrocytic stage of Plasmodium falciparum 3D7; assay type: functional
[23] = Selectivity index, ratio of IC50 for human HepG2 cells to IC50 for erythrocytic stage of Plasmodium falciparum 3D7; assay type: toxicity, cell-based; details: read-out: Ratio IC50
[24] = Toxicity in female mouse model infected with erythrocytic stage of Plasmodium yoelli assessed as animal death at 30 mg/kg, ip pre-infected with parasite followed by […] compound administration from day 3 to 6; assay type: organism-based; details: in vivo, 96 h, time 4 day
[25] = test system: Plasmodium yoelii; test: Antimalarial activity against erythrocytic stage of Plasmodium yoelli infected in female mouse model assessed as reduction in parasitemia at 60 mg/kg, ip pre-infected with parasite followed by once daily compound administration from day 3 to 6 by microscopic analysis; assay type: functional, organism-based; details: time 4.0 day
[26] = Tmax in female Balb/c mouse at 5 mg/kg, ip measured after 24 hrs by LC-MS/MS analysis; assay type: ADME, organism-based; details: in vivo
[27] = Toxicity in female mouse model at 150 mg/kg, ip administered as single dose; assay type: organism-based; details: in vivo

With `COc1ccc2c(CN[C@H]3CC[C@@H](Nc4ncc(C(=O)NO)cn4)CC3)cn(C)c2c1.Cl` the IC50 [1] was 12.8 nM, the IC50 [2] was 21 nM and the IC50 [3] was over 10000 nM. For the same molecule, the IC50 [4] was 27.2 nM, the IC50 [5] was 14 nM and the selectivity ratio [6] was over 867. It also gave an IC50 [7] of 30 nM, an IC50 [8] of 2.7 nM and an IC50 [9] of 38.7 nM. For the same molecule, the IC50 [10] was 22.7 nM, the IC50 at 72 h [11] was over 10000 nM and the inhibition [12] was “Active”. For the same molecule, the half-life [13] was 48 min, the Activity [14] was “Active; Only Slight Recurrence Of Parasitemia Was Observed Upon Cessation Of Treatment” and the IC50 at 72 h [15] was 12800 nM. For the same molecule, the IC50 [16] was 90 nM, the Activity [17] was “Toxic” and the IC50 [18] was 9.1 nM. For the same molecule, the CLint scaled [19] was 114 mL/min/kg.
`CCc1nc(N)nc(N)c1-c1ccc(Cl)cc1` [PYRIMETHAMINE] showed an IC50 [8] of 24.8 nM and an IC50 [9] of over 50000 nM.
Molecule `C[C@H]1[C@@H](O)O[C@@H]2O[C@@]3(C)CC[C@H]4[C@H](C)CC[C@@H]1[C@@]24OO3` [ARTENIMOL] has an IC50 [1] of 2.68 nM, a Ratio IC50 [20] of 2.1 and a Ratio IC50 [21] of 1.4. The IC50 [4] was 3.2 nM, the IC50 [8] was 2.7 nM and the Ratio IC50 [22] was 1.2. For the same molecule, the IC50 [9] was 5.6 nM and the IC50 [10] was 3.7 nM.
In the case of `O=C(NO)c1cnc(N[C@H]2CC[C@@H](NCc3c4ccccc4cc4ccccc34)CC2)nc1`, the IC50 [1] is reported as 7.5 nM, the selectivity ratio [23] is reported as 95 and the selectivity ratio [6] is reported as 114. The IC50 [8] was 9 nM, the IC50 at 72 h [11] was 1030 nM and the IC50 at 72 h [15] was 858 nM.
For `Cn1cc(CNCC2CCN(c3ncc(C(=O)NO)cn3)CC2)c2ccccc21` [QUISINOSTAT], the IC50 [3] was over 10000 nM, the IC50 [4] was 1.7 nM and the Activity [24] was “Toxic”. For the same molecule, the Activity [25] was “Active; Significant Recurrence Of Parasitemia Observed”, the Tmax [26] was 4.98 min and the IC50 [8] was 5.2 nM. For the same molecule, the Activity [27] was “Toxic”, the inhibition [12] was “Active” and the half-life [13] was 13.3 min. The Activity [14] was “Not active; Mild Recurrence Of Parasitemia Post-Treatment Cessation Observed”.
`O=C(NO)c1cnc(N[C@H]2CC[C@@H](NCc3cc4ccccc4s3)CC2)nc1` showed an IC50 [1] of 26.4 nM, a selectivity ratio [23] of 66 and a selectivity ratio [6] of 109. The IC50 [8] was 21.8 nM, the IC50 at 72 h [11] was 2380 nM and the IC50 at 72 h [15] was 1440 nM.
Work on `O=C(NO)c1cnc(N[C@H]2CC[C@@H](NCc3ccc4ncccc4c3)CC2)nc1` yielded an IC50 [1] of 47.2 nM, a selectivity ratio [23] of 143 and a selectivity ratio [6] of 157. It also gave an IC50 [8] of 44.5 nM, an IC50 at 72 h [11] of 6980 nM and an IC50 at 72 h [15] of 6380 nM.
With `O=C(NO)c1cnc(N[C@H]2CC[C@@H](NCc3ccc(-c4ccccc4)cc3)CC2)nc1` the IC50 [1] was 179 nM, the selectivity ratio [23] was 22 and the selectivity ratio [6] was 24. The IC50 [8] was 92.1 nM, the IC50 at 72 h [11] was 2180 nM and the IC50 at 72 h [15] was 2000 nM.
